# In patent publication US20130052213A1, “NOVEL IMMUNOMODULATORY PEPTIDE” (Novozymes A/S, priority 2011, published 2013):
# No end group written: not given here.
# What was measured:
# IL-10 [1] = experiment: IL-10 production from LPS-stimulated PBMC (cytometric bead array); format: cell-based; details: human PBMCs stimulated with LPS 0.6 or 20 ng/ml; hBD2 100, 10 or 1 pg/ml; Dexamethason 3.5 ng/ml; Infliximab 1 μg/ml; 24 hours
# Experimental: (§1) Peripheral blood was drawn from healthy volunteers (with approval from the relevant ethical committee in Denmark). Heparinized blood was diluted 1/1 v/v with RPMI and were subjected to Ficoll density centrifugation within 2 h of drawing. Plasma was collected from the top from individual donors and was kept on ice until it was used at 2% in the culture medium (autologous culture medium). Isolated PBMC were resuspended in autologous culture medium and seeded in 96-well culture plates with 255.000 cells per well in a total of 200 μl. PBMC from the same donor were stimulated with 100, 10 or 1 pg/ml of hBD2 (either full-length or cleaved) either alone or together with LPS at 0.6 ng/ml or 20 ng/ml (E. coli, O111:B4, Sigma L4391), as a control on down-regulation of inflammatory cytokines 3.5 ng/ml Dexamethason (Sigma D8893) and 1 μg/ml Infliximab (Centocur B. V., NCI039843LA) was included. The concentrations of these compounds were based on initial titration studies, where the highest possible concentration without effect of viability was used. The supernatants were collected after incubation at 37° C. for 24 hours, and stored at −80° C.° until cytokine measurement. Viability was measured by Alamar Blue (Biosource, DALL 1100) to be sure that anti-inflammatory effects were not due to toxicity.
# TNF and IL-10 production in supernatants was measured by flow cytometry with a human inflammation cytometric bead array (CBA) according to manufacturer's instructions (BDBioSciences) on a FACSarray flow cytometer (BDBiosciences).
# All experiments were performed at least twice on several donors, with representative results shown. The data presented are expressed as mean plus/minus standard deviation (SD). Statistical significance was determined by 2-way ANOVA with the variables being treatment (hBD2, dexamethazone, etc.) and stimulation (LPS) followed by Bonferroni post-test as reported in the table legends. Differences were considered significant for p<0.05.
# TNF [2] = experiment: TNF production from LPS-stimulated PBMC (cytometric bead array); format: cell-based, human; details: for TNF production (FIG. 2): human PBMCs stimulated with LPS 0.6 or 20 ng/ml, hBD2 100, 10 or 1 pg/ml, 24 hours
# Experimental: as §1, with “toxicity. TNF and IL-10 production in supernatants was measured by flow cytometry with a human inflammation cytometric bead array (CBA) according to manufacturer's instructions (BDBioSciences) on a FACSarray flow cytometer (BDBiosciences). All experiments were performed at least twice on several donors, with representative results shown. The data presented are expressed as mean plus/minus standard deviation (SD). Statistical significance was determined by 2-way ANOVA with the variables being treatment (hBD2, dexamethazone, etc.) and stimulation (LPS) followed by Bonferroni post-test as reported in the table legends. Differences were considered significant for p<0.05.” for “toxicity.”
# TNF [3] = details: human PBMCs stimulated with LPS or another TLR ligand; cited from earlier work
# IL-10 [4] = details: human PBMCs stimulated with LPS or another TLR ligand; cited from earlier work
# rheumatoid arthritis = details: WO 2010/007168; cited from earlier work
Substance,IL-10 production (FIG. 1) (IL-10 [1]),"anti-inflammatory activity in vitro compared with full-length hBD2 (FIGS. 1 and 2) (TNF [2]; human PBMC stimulated with LPS, TNF and IL-10 read-outs)","potency relative to full length hBD2 (FIG. 2) (TNF [2]; human PBMC, TNF production, at some concentrations)",TNF production (FIG. 2) (TNF [2]),"effect on TNF, previously seen (WO 2010/007166) (TNF [3])","effect on IL-10, previously seen (WO 2010/007166) (IL-10 [4])",therapeutic potential in animal model of rheumatoid arthritis (rheumatoid arthritis)
"Infliximab: anti-TNF antibody, control for anti-inflammatory effects",down-regulate IL-10,,,,,,
PVTCLKSGAICHPVFCPRRYKQIGTCGLPGTKCCKKP [cleaved hBD2],significantly induced IL-10 production,same anti-inflammatory activity in vitro as full-length hBD2,more potent than full length human beta-defensin 2,significantly reduced TNF production,,,
"full-length hBD2: full length human beta defensin 2, produced recombinantly in E. coli (GIGDPVTCLKSGAICHPVFCPRRYKQIGTCGLPGTKCCKKP; ends and bridges not checked; cysteine pairing not given here; listed as Homo sapiens)",significantly induced IL-10 production,,,significantly reduced TNF production,downregulation of TNF,upregulation of IL-10,has shown therapeutic potential
